For 50 molecules, efficacy and AC50 cell viability results are on record in the supplement of paper PMC10290057.

Assay [1] relates to HCT116. Briefly: efficacy (fitted maximal change in viability relative to DMSO control); higher = less cytotoxic (negative = loss of viability). The settings on record: 48 h.
Assay [2] concerns HCT116. Briefly: AC50 cell viability (CellTiter-Glo); higher = less potent. The settings on record: 48 h. On the technique in general: In ATP-based viability assays light output follows the ATP content of the culture.

Structures are written as SMILES.
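For AC50 cell viability (CellTiter-Glo) in this document: HCT116 colorectal carcinoma cells screened at five concentrations per compound, luminescent viability scaled between DMSO wells and empty wells on each plate, curves fitted per compound.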
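For efficacy (fitted maximal change in viability relative to DMSO control) in this document: Luminescence-based viability readout, five doses per compound, normalized against on-plate DMSO and empty-well controls, followed by dose-response curve fitting for every drug.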

Regarding `COc1cc(Nc2c(C#N)cnc3cc(OCCCN4CCN(C)CC4)c(OC)cc23)c(Cl)cc1Cl` [Bosutinib], the efficacy in assay [1] was -93.7%. In assay [2], this molecule showed an AC50 cell viability of 4.68 µM.
With `Cc1c(-c2ccc(-c3ccccc3F)cc2)nc2ccc(F)cc2c1C(=O)O` [Brequinar], the efficacy in assay [1] was -62.1%. In addition, the AC50 cell viability in assay [2] was found to be 0.209 µM.
`COc1cc(OC)c(/C=C/[S+](=O)([O-])Cc2ccc(OC)c(OP(=O)(O)O)c2)c(OC)c1` [Briciclib]: the efficacy in assay [1] was -61.6%. For the same molecule, the AC50 cell viability in assay [2] is 0.0468 µM.
With `COc1cc(N2CCC(N3CCN(C)CC3)CC2)ccc1Nc1ncc(Cl)c(Nc2ccccc2P(C)(C)=O)n1` [Brigatinib], the efficacy in assay [1] is -75.3%. Moreover, the AC50 cell viability in assay [2] was found to be 0.525 µM.
For `Cc1ccc(Sc2ccccc2N2CCNCC2)c(C)c1` [Brintellix], the efficacy in assay [1] is -92.6%. The same molecule displayed an AC50 cell viability in assay [2] of 11.8 µM.
Take `Cc1cc2c(F)c(Oc3ncnn4cc(OC[C@@H](C)O)c(C)c34)ccc2[nH]1` [Brivanib]: the efficacy in assay [1] is -80.3%. Further, the AC50 cell viability in assay [2] amounted to 9.34 µM.
In the case of `COC(=O)[C@@]12OC[C@]34[C@H]([C@@H](O)[C@@H]1O)[C@@]1(C)CC(=O)C(O)=C(C)[C@@H]1C[C@H]3OC(=O)[C@H](OC(=O)/C=C(\C)C(C)C)[C@@H]24` [Bruceantin], in assay [1], the efficacy is -71.9%. Further, in assay [2], the AC50 cell viability turned out to be 0.00833 µM.
On to `CCCC1OC2C[C@H]3[C@@H]4CCC5=CC(=O)C=C[C@]5(C)[C@H]4C(O)C[C@]3(C)[C@]2(C(=O)CO)O1` (stereo not given in full) [Budesonide], for which the efficacy in assay [1] is -52.3%. In assay [2], this molecule returned an AC50 cell viability of 18.6 µM.
Regarding `Clc1ccc(CCC(Cn2ccnc2)Sc2c(Cl)cccc2Cl)cc1` (stereo not given) [Butoconazole nitrate], the efficacy in assay [1] is -51.6%. The AC50 cell viability in assay [2] stood at 20.9 µM.
For `COc1ccc([S+](=O)([O-])Nc2cc(-c3c(O)ccc4ccccc34)c(O)c3ccccc23)cc1` [C-188-9] the same measures were -95.1% and 26.3 µM.
For `CCCNC(=O)[C@H]1O[C@@H]1C(=O)N[C@H](C(=O)N1CCC[C@H]1C(=O)OC)C(C)CC` (stereo not given in full) [CA-074 Me] the same measures were -88.8% and 18.6 µM.
Regarding `OCCNC1CCCc2c1[nH]c1ccc(-c3ccccc3)cc21` (stereo not given) [CASIN], the efficacy in assay [1] is -95.3%. Besides, the AC50 cell viability in assay [2] came to 8.33 µM.
Take `Cc1cc2c(C(N)=O)cccc2n1-c1nc2c(c(NCc3ccccc3)n1)COCC2` [CB-5083]: the efficacy in assay [1] is -88.7%. The molecule further showed an AC50 cell viability in assay [2] of 0.833 µM.
Regarding `CC(=O)c1ccc2c(c1)c1cc(C(C)=O)ccc1n2CCNC(C)C` [CBL-0137], in assay [1], the efficacy is -69.6%. This molecule showed an AC50 cell viability in assay [2] of 0.417 µM.
For `CCN1C(=O)C\N=C/2N\C=C(/N=C12)C3=C(C)N=C(C=C3)C4=NN=C[NH]4` [CC-115], the efficacy in assay [1] is -71%. The AC50 cell viability in assay [2] came out at 7.42 µM.
With `CO[C@H]1CC[C@H](N2C(=O)CNc3ncc(-c4ccc(C(C)(C)O)nc4)nc32)CC1` [CC-223], in assay [1], the efficacy was -85.5%. Further, the AC50 cell viability in assay [2] was 9.34 µM.
On to `c1cc(OCCN2CCCCC2)cc(-c2n[nH]c3ccc(-c4nc[nH]n4)cc23)c1` [CC-401], for which the efficacy in assay [1] was -70.1%. This molecule returned an AC50 cell viability in assay [2] of 14.8 µM.
As for `Cc1ccc(NC(=O)NCc2ccc3c(c2)CN(C2CCC(=O)NC2=O)C3=O)cc1Cl` (stereo not given) [CC-885], the efficacy in assay [1] was -42.4%. This molecule also returned an AC50 cell viability in assay [2] of 0.0934 µM.
For `COC1CC(C(=O)c2ccc3c(N)ncc(-c4ccc(-c5cnn(C)c5)cc4)c3n2)C1` (stereo not given) [CDK8i-51], in assay [1], the efficacy was -34.9%. For the same molecule, in assay [2], the AC50 cell viability is 5.25 µM.
For `Cc1ccc(Nc2cc(-c3cccc(N4C(=O)c5ccccc5C4=O)c3)ncn2)cc1N[S+](C)(=O)[O-]` [CDK9 Inhibitor] the same measures were -73.6% and 20.9 µM.
For `COc1cc2c(cc1OC(C)C)[C@H](c1ccc(Cl)cc1)N(c1ccc(N(C)C[C@H]3CC[C@H](N4CCN(C)C(=O)C4)CC3)cc1)C(=O)C2` [CGM-097], the efficacy in assay [1] was -123%. In assay [2], this molecule had an AC50 cell viability of 14.8 µM.
Consider `ClC1=CC\2=C(NC(=O)\C(=C2N[C@@H]3CN4CCC3CC4)C5=NC6=C([NH]5)C=CC=C6)C=C1` [CHIR-124], for which the efficacy in assay [1] is -80.9%. This molecule had an AC50 cell viability in assay [2] of 0.833 µM.
For `Cn1c(Nc2ccc(C(F)(F)F)cc2)nc2cc(Oc3ccnc(-c4nc(C(F)(F)F)c[nH]4)c3)ccc21` [CHIR-265], the efficacy in assay [1] is -108%. Further, the AC50 cell viability in assay [2] was 5.25 µM.
Consider `CC(=O)Nc1cc(Oc2ccc3c(nc(Nc4ccc(F)cc4F)n3C)c2C)ccn1` [CHZ868], for which the efficacy in assay [1] is -67.4%. The molecule also showed an AC50 cell viability in assay [2] of 0.833 µM.
As for `OC(=O)/C1=C/CCN(CCOC(C2=CC=C(C=C2)C(F)(F)F)C3=CC=C(C=C3)C(F)(F)F)C1` [CI-966], the efficacy in assay [1] is -37.1%. Moreover, the AC50 cell viability in assay [2] is 18.6 µM.
`CC(C)n1cnc2c(NCCCCCCNC(=O)OC(C)(C)C)nc(NCCO)nc21` [CK-59]: in assay [1], the efficacy is -79.7%. The molecule further showed an AC50 cell viability in assay [2] of 26.3 µM.
For the molecule `COc1c(C)cnc(Cn2cnc3c(Cl)nc(N)nc32)c1C` [CNF-2024], the efficacy in assay [1] is -57%. The same molecule had an AC50 cell viability in assay [2] of 0.148 µM.
As for `C=CC(=O)Nc1cccc(Nc2nc(Nc3ccc(Oc4ccnc(C(=O)NC)c4)cc3)ncc2F)c1` [CNX-774], in assay [1], the efficacy was -111%. In assay [2], the AC50 cell viability was 14.8 µM.
For `C=CC(=O)Nc1cccc(Nc2nc(Nc3ccc(NC4CN(CCF)C4)cc3OC)ncc2C(F)(F)F)c1` [CNX-2006], in assay [1], the efficacy is -105%. In addition, in assay [2], the AC50 cell viability was found to be 10.5 µM.
On to `CC1=C(C)C\2=C(S1)[N]3C(=NN=C3C(CC(N)=O)\N=C2C4=CC=C(Cl)C=C4)C` (stereo not given) [CPI-203], for which the efficacy in assay [1] is -62.8%. Moreover, in assay [2], the AC50 cell viability was 0.295 µM.
Taken in the same sequence, the figures for `CC1=C(C)C\2=C(S1)[N]3C(=NN=C3[C@H](CC(N)=O)\N=C2C4=CC=C(Cl)C=C4)C` [CPI-203] were -58.5% and 0.372 µM.
For the molecule `Cc1noc2c1-c1ccccc1C(c1ccc(Cl)cc1)=N[C@H]2CC(N)=O` [CPI-0610], in assay [1], the efficacy was -65.4%. Besides, the AC50 cell viability in assay [2] was found to be 1.05 µM.
In the case of `C[C@@H]1CC(=O)Nc2cccc(-c3ccc4c(c3)c(-c3cnn(C)c3)nn4C)c2N1` [CPI-637], the efficacy in assay [1] was -82.6%. In assay [2], this molecule showed an AC50 cell viability of 11.8 µM.
Consider `C[C@@H]1CC(=O)Nc2cccc(-c3cnn(C(C)(C)C)c3)c2N1` [CPI-703], for which the efficacy in assay [1] is -37.4%. Moreover, the AC50 cell viability in assay [2] is 16.6 µM.
Turning to `O=C(NO)C1(C[S+](=O)([O-])c2ccc(Oc3ccc(Cl)cc3)cc2)CCOCC1` [CTS-1027], the efficacy in assay [1] is -61.5%. The same molecule gave an AC50 cell viability in assay [2] of 20.9 µM.
Turning to `C#Cc1cccc(Nc2ncnc3cc(OC)c(OCCCCCCC(=O)NO)cc23)c1` [CUDC-101], the efficacy in assay [1] is -81.3%. The molecule also came in with an AC50 cell viability in assay [2] of 0.332 µM.
Take `CN(C)c1cc2c(cc1Sc1nc3c(N)nccc3n1CCNCC(C)(C)C)OCO2` [CUDC-305]: the efficacy in assay [1] was -66.5%. The molecule also had an AC50 cell viability in assay [2] of 0.468 µM.
Consider `COc1ccc(-c2nc(N3CCOCC3)c3sc(CN(C)c4ncc(C(=O)NO)cn4)cc3n2)cn1` [CUDC-907], for which the efficacy in assay [1] is -96.8%. The molecule further had an AC50 cell viability in assay [2] of 0.0372 µM.
Regarding `COc1ccc(CNc2nc(N(CCO)CCO)nc3c2ncn3C(C)C)cc1` [CVT-313], in assay [1], the efficacy was -54.3%. Also, the AC50 cell viability in assay [2] worked out at 3.32 µM.
For the molecule `CN1CCCN(CC1)C2=CC=C3C(=O)\C(=C/4SC5=C(C=CC=C5)N4C3=N2)C(=O)NCC6=CN=C(C)C=N6` [CX-5461], the efficacy in assay [1] is -49.8%. In assay [2], this molecule yielded an AC50 cell viability of 1.35 µM.
For `CN1CCCN(C(=O)c2cccc(-c3ccc(/C=C4/C(=O)Nc5ccc(Cl)cc54)o3)c2)CC1` [CX-6258] the same measures were -97.8% and 7.42 µM.
Taken in the same sequence, the figures for `Cc1nc(N)sc1-c1ccnc(Nc2ccc(N3CCOCC3)cc2)n1` [CYC-116] were -61% and 2.09 µM.
For `CO[C@H]1C[C@H]2OC[C@@]2(OC(C)=O)[C@H]3[C@H](OC(=O)C4=CC=CC=C4)[C@]5(O)C[C@H](OC(=O)[C@H](O)[C@@H](NC(=O)OC(C)(C)C)C6=CC=CC=C6)/C(=C(/[C@@H](OC)C(=O)[C@]13C)C5(C)C)C` [Cabazitaxel] the same measures were -57.4% and 0.00263 µM.
As to `COc1cc2nccc(Oc3ccc(NC(=O)C4(C(=O)Nc5ccc(F)cc5)CC4)cc3)c2cc1OC` [Cabozantinib], the efficacy in assay [1] was -65.4%. In addition, the AC50 cell viability in assay [2] came out at 7.42 µM.
For `CC(N[C@H]1CCCC[C@@H]1NC(=O)c1ccc(Cl)cc1)c1cccc2ccccc12` (stereo not given in full) [Calhex-231], the efficacy in assay [1] was -92.8%. Besides, the AC50 cell viability in assay [2] is 9.34 µM.
For `C[C@@H](NCc1cc2ccccc2[nH]1)c1cccc2ccccc12` [Calindol] the same measures were -94.8% and 13.2 µM.
For `Clc1ccc(C(c2ccc(Cl)cc2)[n+]2ccn(CC(OCc3ccc(Cl)cc3Cl)c3ccc(Cl)cc3Cl)c2)cc1` (stereo not given) [Calmidazolium chloride] the same measures were -100% and 10.5 µM.
Take `Cc1ccc([C@@H]2O[C@H](CO)[C@@H](O)[C@H](O)[C@H]2O)cc1Cc1ccc(-c2ccc(F)cc2)s1` [Canagliflozin]: the efficacy in assay [1] is -83.7%. Further, in assay [2], the AC50 cell viability was found to be 23.5 µM.
On to `C=CC(=O)Nc1cc2c(Nc3ccc(F)c(Cl)c3)ncnc2cc1OCCCN1CCOCC1` [Canertinib], for which the efficacy in assay [1] was -116%. For the same molecule, the AC50 cell viability in assay [2] stood at 14.8 µM.
Taken in the same sequence, the figures for `CCCCCC1=CC(=C([C@@H]2\C=C(C)/CC[C@H]2C(C)=C)C(=C1)O)O` [Cannabidiol] were -84.5% and 20.9 µM.
